Test results published in the supplement of paper PMC4862054.

Assays:
Test in all cases: normalised response (% of control), CellTiter-Glo; higher = more viable cells (100 = DMSO, 0 = benzethonium chloride kill control)
Conditions in all cases: incubation time: 72 h
MDA-MB-436 = system: MDA-MB-436
How it was run: (§1)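 Each entry is the normalised signal at a single concentration within a series. The series comprised 5 concentrations in 10-fold steps over a compound-specific 10,000-fold range, placed in 384-well plates into which breast cancer cell lines were seeded as 20 µl suspension and incubated 72 h. CellTox Green (485/520 nm) fluorescence and then CellTiter-Glo luminescence were read, with signals normalised per plate to 0.1 % DMSO (100) and a positive kill control (0).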

MFM-223 = system: MFM-223
How it was run: as §1

HCC1937 = system: HCC1937
How it was run: as §1

HCC1143 = system: HCC1143
How it was run: as §1

CAL-85-1 = system: CAL-85-1
How it was run: as §1

HCC1599 = system: HCC1599
How it was run: as §1

MDA-MB-231 = system: MDA-MB-231
How it was run: as §1

BT-549 = system: BT-549
How it was run: as §1

MDA-MB-453 = system: MDA-MB-453
How it was run: as §1

HDQ-P1 = system: HDQ-P1
How it was run: as §1

MCF-10A = system: MCF-10A
How it was run: as §1

SK-BR-3 = system: SK-BR-3
How it was run: as §1

BT-474 = system: BT-474
How it was run: as §1

CAL-120 = system: CAL-120
How it was run: as §1

CAL-51 = system: CAL-51
How it was run: as §1

Hs578T = system: Hs578T
How it was run: as §1

DU-4475 = system: DU-4475
How it was run: as §1

MDA-MB-468 = system: MDA-MB-468
How it was run: as §1

CAL-148 = system: CAL-148
How it was run: as §1

Compound	normalised response (MDA-MB-436) [%]	normalised response (MFM-223) [%]	normalised response (HCC1937) [%]	normalised response (HCC1143) [%]	normalised response (CAL-85-1) [%]	normalised response (HCC1599) [%]	normalised response (MDA-MB-231) [%]	normalised response (BT-549) [%]	normalised response (MDA-MB-453) [%]	normalised response (HDQ-P1) [%]	normalised response (MCF-10A) [%]	normalised response (SK-BR-3) [%]	normalised response (BT-474) [%]	normalised response (CAL-120) [%]	normalised response (CAL-51) [%]	normalised response (Hs578T) [%]	normalised response (DU-4475) [%]	normalised response (MDA-MB-468) [%]	normalised response (CAL-148) [%]
Nc1ncnc2c1c(COc1cccc(Cl)c1)nn2C1CCOCC1 (1 nM)	102	102	100	106	95.7	107	103	104	102	100	114	109	102	95.4	105	104	101	94.7	105
Nc1ncnc2c1c(COc1cccc(Cl)c1)nn2C1CCOCC1 (10 nM)	105	105	97.7	105	101	101	107	98.2	104	99.1	114	–	101	96.6	94.8	108	105	106	115
COc1ccc(-c2ccc3c(N4CCOC[C@@H]4C)nc(N4CCOC[C@@H]4C)nc3n2)cc1CO [AZD8055] (1 nM)	89.3	86.8	91	86.8	93.5	108	95.2	98.2	104	95.2	85.7	87.1	90.8	90.3	116	93.7	95.5	90.5	89.3
COc1ccc(-c2ccc3c(N4CCOC[C@@H]4C)nc(N4CCOC[C@@H]4C)nc3n2)cc1CO [AZD8055] (10 nM)	76.5	77.8	84.2	86.8	85.4	98.3	88	77.9	79.3	74.6	87	53.5	84.8	81.1	92.8	92.2	92	80.1	82.5
C[C@]12CC[C@H](O)CC1=CC[C@@H]1[C@@H]2CC[C@]2(C)C(c3cccnc3)=CC[C@@H]12 [Abiraterone] (0.5 nM)	94.7	98	96.2	94.7	106	119	105	105	114	106	102	106	104	97.6	95.7	102	94.5	109	108
C[C@]12CC[C@H](O)CC1=CC[C@@H]1[C@@H]2CC[C@]2(C)C(c3cccnc3)=CC[C@@H]12 [Abiraterone] (5 nM)	103	97.5	94.6	101	110	116	106	95.6	116	99.5	102	111	107	95.7	136	104	109	99	91.8
CN(C)CCN1C(=O)c2cccc3cc(N)cc(c23)C1=O [Amonafide] (1 nM)	100	103	99.3	94	101	102	102	101	105	97.3	88.6	103	104	99.7	120	97.6	101	94.7	99.9
CN(C)CCN1C(=O)c2cccc3cc(N)cc(c23)C1=O [Amonafide] (10 nM)	103	99.8	96.9	101	98	95	102	100	98.6	100	97.6	–	98.7	97	123	99.8	99.7	93	86.5
CC(C)(C#N)c1cc(Cn2cncn2)cc(C(C)(C)C#N)c1 [Anastrozole] (1 nM)	95.2	106	99.7	95.5	102	110	96.7	109	112	103	102	111	100	101	89.9	99.3	105	102	94.8
CC(C)(C#N)c1cc(Cn2cncn2)cc(C(C)(C)C#N)c1 [Anastrozole] (10 nM)	99.4	104	100	103	94.9	102	100	99	104	94.3	110	105	101	96.2	93.7	105	104	98.8	99.3
CC(C)c1c(C(=O)Nc2ccccc2)c(-c2ccccc2)c(-c2ccc(F)cc2)n1CC[C@@H](O)C[C@@H](O)CC(=O)O [Atorvastatin] (1 nM)	95.5	97.6	98.1	98.2	98.7	96.5	95.2	96.9	107	95.9	99.1	103	94	92.8	89.8	98.9	100	94.2	103
CC(C)c1c(C(=O)Nc2ccccc2)c(-c2ccccc2)c(-c2ccc(F)cc2)n1CC[C@@H](O)C[C@@H](O)CC(=O)O [Atorvastatin] (10 nM)	96.5	102	99.7	103	98.9	104	96.9	90	104	101	100	102	100	96.8	76.1	101	98.7	104	101
O=C(O)CCCc1ccc(N(CCCl)CCCl)cc1 [Chlorambucil] (1 nM)	132	102	102	102	99.4	98.4	101	102	118	101	100	95.6	102	97.1	128	107	102	96.9	96.8
O=C(O)CCCc1ccc(N(CCCl)CCCl)cc1 [Chlorambucil] (10 nM)	104	108	98.8	102	108	97.8	106	102	101	99.7	93.6	–	99.1	97.2	95.2	103	101	101	101
Cn1c(=O)n(-c2ccc(C(C)(C)C#N)cc2)c2c3cc(-c4cnc5ccccc5c4)ccc3ncc21 [Dactolisib] (0.1 nM)	99.6	108	98.8	97.4	101	122	105	100	109	102	105	111	104	97.4	107	102	103	110	102
Cn1c(=O)n(-c2ccc(C(C)(C)C#N)cc2)c2c3cc(-c4cnc5ccccc5c4)ccc3ncc21 [Dactolisib] (1 nM)	95.8	108	98.7	98.5	101	95.8	107	101	110	95	113	–	106	90.2	83.4	95.7	107	103	116
CO[C@H]1C[C@@H]2CC[C@@H](C)[C@@](O)(O2)C(=O)C(=O)N2CCCC[C@H]2C(=O)O[C@H]([C@H](C)C[C@@H]2CC[C@@H](OCCO)[C@H](OC)C2)CC(=O)[C@H](C)/C=C(\C)[C@@H](O)[C@@H](OC)C(=O)[C@H](C)C[C@H](C)/C=C/C=C/C=C/1C [Everolimus] (0.01 nM)	95.7	95.3	95.9	93	95.3	107	98.9	103	99.3	96.1	93.6	93.4	103	97.8	132	91.2	98.7	105	90.1
C/C(=C\c1csc(C)n1)[C@@H]1C[C@@H]2O[C@]2(C)CCC[C@H](C)[C@H](O)[C@@H](C)C(=O)C(C)(C)[C@@H](O)CC(=O)O1 [Patupilone] (1 nM)	108	101	103	111	105	117	107	97.3	107	97.3	106	–	104	103	99.2	104	106	109	106
CC[C@]1(O)C[C@H]2CN(CCc3c([nH]c4ccccc34)[C@@](C(=O)OC)(c3cc4c(cc3OC)N(C=O)[C@H]3[C@@](O)(C(=O)OC)[C@H](OC(C)=O)[C@]5(CC)C=CCN6CC[C@]43[C@@H]65)C2)C1 [Vincristine] (1 nM)	106	104	96.3	104	102	113	99.4	87.6	104	97.6	104	–	100	96.4	91.4	105	106	95.3	110
